Blank lines part the entries; values can stand above or below the compound they belong to.
Tested on: Rh18 complex spheroid viability, percent test/control
Assay: Anticancer human tumor Rh18 cell line growth inhibition [Asc];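 note: spheroids exposed to compound for 7 days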;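 for viability, T/C: 100% = DMSO vehicle control wells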
Conditions: for IC50: curve of first compound; for viability, T/C: stronger effect = lower value
Summary of the method: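 Concentration series start at each agent's clinical Cmax, or at 10 microM when none is established, and drop in half-log steps; agents are applied alone or together to complex spheroids built with HUVEC and hMSC.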

IC50 (second compound 0.03 µM): < 9.49 nM | IC50 (second compound 0.0949 µM): < 9.49 nM | IC50 (second compound 0.3 µM): < 9.49 nM | IC50 (second compound 0.949 µM): < 9.49 nM | IC50 (second compound 3 µM): < 9.49 nM
SMILES: Cc1nc(N2CCC3(CC2)COC(C)C3N)c(CO)nc1Sc1ccnc(N)c1Cl (centres undefined) + CCN1C(C(=O)NC23CCC(C(=O)O)(CC2)CC3)C(c2cccc(Cl)c2F)C2(C(=O)Nc3cc(Cl)ccc32)C12CCCCC2
viability, T/C (second compound 0.03 µM, first compound 0.00949 µM): 27% | viability, T/C (second compound 0.03 µM, first compound 0.03 µM): 25.9% | viability, T/C (second compound 0.03 µM, first compound 0.0949 µM): 21.3% | viability, T/C (second compound 0.03 µM, first compound 0.3 µM): 17.6% | viability, T/C (second compound 0.03 µM, first compound 0.949 µM): 12.5% | viability, T/C (second compound 0.03 µM, first compound 3 µM): 10.6% | viability, T/C (second compound 0.0949 µM, first compound 0.00949 µM): 15.7% | viability, T/C (second compound 0.0949 µM, first compound 0.03 µM): 14.1% | viability, T/C (second compound 0.0949 µM, first compound 0.0949 µM): 12.6% | viability, T/C (second compound 0.0949 µM, first compound 0.3 µM): 10.3% | viability, T/C (second compound 0.0949 µM, first compound 0.949 µM): 10% | viability, T/C (second compound 0.0949 µM, first compound 3 µM): 5.48% | viability, T/C (second compound 0.3 µM, first compound 0.00949 µM): 10.6% | viability, T/C (second compound 0.3 µM, first compound 0.03 µM): 11.8% | viability, T/C (second compound 0.3 µM, first compound 0.0949 µM): 7.08% | viability, T/C (second compound 0.3 µM, first compound 0.3 µM): 6.62% | viability, T/C (second compound 0.3 µM, first compound 0.949 µM): 4.84% | viability, T/C (second compound 0.3 µM, first compound 3 µM): 3.71% | viability, T/C (second compound 0.949 µM, first compound 0.00949 µM): 7.44% | viability, T/C (second compound 0.949 µM, first compound 0.03 µM): 6.92% | viability, T/C (second compound 0.949 µM, first compound 0.0949 µM): 5.92% | viability, T/C (second compound 0.949 µM, first compound 0.3 µM): 4.76% | viability, T/C (second compound 0.949 µM, first compound 0.949 µM): 3.46% | viability, T/C (second compound 0.949 µM, first compound 3 µM): 1.83% | viability, T/C (second compound 3 µM, first compound 0.00949 µM): 5.58% | viability, T/C (second compound 3 µM, first compound 0.03 µM): 7.16% | viability, T/C (second compound 3 µM, first compound 0.0949 µM): 4.62% | viability, T/C (second compound 3 µM, first compound 0.3 µM): 3.55% | viability, T/C (second compound 3 µM, first compound 0.949 µM): 3.01% | viability, T/C (second compound 3 µM, first compound 3 µM): 1.74%

IC50 (second compound 0.00316 µM): 5080 nM | IC50 (second compound 0.01 µM): 4310 nM | IC50 (second compound 0.0316 µM): 3640 nM | IC50 (second compound 0.1 µM): < 31.6 nM | IC50 (second compound 0.316 µM): 1790 nM | IC50 (second compound 1 µM): 3380 nM
SMILES: C#Cc1c(F)ccc2cc(O)cc(-c3ncc4c(N5CC6CCC(C5)N6)nc(OCC56CCCN5CC(F)C6)nc4c3F)c12 (centres undefined) + CNC(C)C(=O)NC1CN(S(=O)(=O)c2cccc(S(=O)(=O)N3CCC4CCC(C(=O)NC(c5ccccc5)c5ccccc5)N4C(=O)C(NC(=O)C(C)NC)C3)c2)CCC2CCC(C(=O)NC(c3ccccc3)c3ccccc3)N2C1=O
viability, T/C (second compound 0.00316 µM, first compound 0.0316 µM): 67.1% | viability, T/C (second compound 0.00316 µM, first compound 0.1 µM): 60.7% | viability, T/C (second compound 0.00316 µM, first compound 0.316 µM): 64.5% | viability, T/C (second compound 0.00316 µM, first compound 1 µM): 65% | viability, T/C (second compound 0.00316 µM, first compound 3.16 µM): 70.7% | viability, T/C (second compound 0.00316 µM, first compound 10 µM): 27.7% | viability, T/C (second compound 0.01 µM, first compound 0.0316 µM): 57.4% | viability, T/C (second compound 0.01 µM, first compound 0.1 µM): 60.7% | viability, T/C (second compound 0.01 µM, first compound 0.316 µM): 50.2% | viability, T/C (second compound 0.01 µM, first compound 1 µM): 74.8% | viability, T/C (second compound 0.01 µM, first compound 3.16 µM): 63.9% | viability, T/C (second compound 0.01 µM, first compound 10 µM): 18.9% | viability, T/C (second compound 0.0316 µM, first compound 0.0316 µM): 63.2% | viability, T/C (second compound 0.0316 µM, first compound 0.1 µM): 40.7% | viability, T/C (second compound 0.0316 µM, first compound 0.316 µM): 52.2% | viability, T/C (second compound 0.0316 µM, first compound 1 µM): 55.3% | viability, T/C (second compound 0.0316 µM, first compound 3.16 µM): 61.5% | viability, T/C (second compound 0.0316 µM, first compound 10 µM): 17.6% | viability, T/C (second compound 0.1 µM, first compound 0.0316 µM): 40.1% | viability, T/C (second compound 0.1 µM, first compound 0.1 µM): 52.3% | viability, T/C (second compound 0.1 µM, first compound 0.316 µM): 40.3% | viability, T/C (second compound 0.1 µM, first compound 1 µM): 61.9% | viability, T/C (second compound 0.1 µM, first compound 3.16 µM): 50.9% | viability, T/C (second compound 0.1 µM, first compound 10 µM): 14.1% | viability, T/C (second compound 0.316 µM, first compound 0.0316 µM): 74.4% | viability, T/C (second compound 0.316 µM, first compound 0.1 µM): 69% | viability, T/C (second compound 0.316 µM, first compound 0.316 µM): 58.9% | viability, T/C (second compound 0.316 µM, first compound 1 µM): 47.2% | viability, T/C (second compound 0.316 µM, first compound 3.16 µM): 54.4% | viability, T/C (second compound 0.316 µM, first compound 10 µM): 11.8% | viability, T/C (second compound 1 µM, first compound 0.0316 µM): 78.2% | viability, T/C (second compound 1 µM, first compound 0.1 µM): 50.2% | viability, T/C (second compound 1 µM, first compound 0.316 µM): 45% | viability, T/C (second compound 1 µM, first compound 1 µM): 51.6% | viability, T/C (second compound 1 µM, first compound 3.16 µM): 53.3% | viability, T/C (second compound 1 µM, first compound 10 µM): 10.5%

IC50 (second compound 0.00316 µM): 12.3 nM | IC50 (second compound 0.01 µM): 18.8 nM | IC50 (second compound 0.0316 µM): 12.4 nM | IC50 (second compound 0.1 µM): 15.6 nM | IC50 (second compound 0.316 µM): < 9.49 nM | IC50 (second compound 1 µM): 11.5 nM
SMILES: Cc1nc(N2CCC3(CC2)COC(C)C3N)c(CO)nc1Sc1ccnc(N)c1Cl (centres undefined) + CNC(C)C(=O)NC1CN(S(=O)(=O)c2cccc(S(=O)(=O)N3CCC4CCC(C(=O)NC(c5ccccc5)c5ccccc5)N4C(=O)C(NC(=O)C(C)NC)C3)c2)CCC2CCC(C(=O)NC(c3ccccc3)c3ccccc3)N2C1=O
viability, T/C (second compound 0.00316 µM, first compound 0.00949 µM): 44.4% | viability, T/C (second compound 0.00316 µM, first compound 0.03 µM): 60% | viability, T/C (second compound 0.00316 µM, first compound 0.0949 µM): 34.7% | viability, T/C (second compound 0.00316 µM, first compound 0.3 µM): 33.7% | viability, T/C (second compound 0.00316 µM, first compound 0.949 µM): 23.2% | viability, T/C (second compound 0.00316 µM, first compound 3 µM): 12.9% | viability, T/C (second compound 0.01 µM, first compound 0.00949 µM): 56% | viability, T/C (second compound 0.01 µM, first compound 0.03 µM): 48.8% | viability, T/C (second compound 0.01 µM, first compound 0.0949 µM): 30.7% | viability, T/C (second compound 0.01 µM, first compound 0.3 µM): 25.8% | viability, T/C (second compound 0.01 µM, first compound 0.949 µM): 23.2% | viability, T/C (second compound 0.01 µM, first compound 3 µM): 14.9% | viability, T/C (second compound 0.0316 µM, first compound 0.00949 µM): 51.2% | viability, T/C (second compound 0.0316 µM, first compound 0.03 µM): 45.7% | viability, T/C (second compound 0.0316 µM, first compound 0.0949 µM): 31.2% | viability, T/C (second compound 0.0316 µM, first compound 0.3 µM): 23.3% | viability, T/C (second compound 0.0316 µM, first compound 0.949 µM): 23.4% | viability, T/C (second compound 0.0316 µM, first compound 3 µM): 16.1% | viability, T/C (second compound 0.1 µM, first compound 0.00949 µM): 63% | viability, T/C (second compound 0.1 µM, first compound 0.03 µM): 32.3% | viability, T/C (second compound 0.1 µM, first compound 0.0949 µM): 22.9% | viability, T/C (second compound 0.1 µM, first compound 0.3 µM): 28.2% | viability, T/C (second compound 0.1 µM, first compound 0.949 µM): 21.9% | viability, T/C (second compound 0.1 µM, first compound 3 µM): 13.2% | viability, T/C (second compound 0.316 µM, first compound 0.00949 µM): 45.9% | viability, T/C (second compound 0.316 µM, first compound 0.03 µM): 24.1% | viability, T/C (second compound 0.316 µM, first compound 0.0949 µM): 31.3% | viability, T/C (second compound 0.316 µM, first compound 0.3 µM): 25.5% | viability, T/C (second compound 0.316 µM, first compound 0.949 µM): 18.9% | viability, T/C (second compound 0.316 µM, first compound 3 µM): 13.9% | viability, T/C (second compound 1 µM, first compound 0.00949 µM): 54% | viability, T/C (second compound 1 µM, first compound 0.03 µM): 30% | viability, T/C (second compound 1 µM, first compound 0.0949 µM): 22% | viability, T/C (second compound 1 µM, first compound 0.3 µM): 22.8% | viability, T/C (second compound 1 µM, first compound 0.949 µM): 37.9% | viability, T/C (second compound 1 µM, first compound 3 µM): 16.7%
